Patent US8076487B2, “Pyridone derivative and herbicide” (Kumiai Chemical Industry Co., Ltd., priority 2006, dated 2011)

Legend:
Assay type in all cases: in vivo
[1] = system: slender amaranth (Amaranthus viridis L.); test: Test Example 2: herbicidal effect by soil application to upland field; settings: soil surface spray, upland field soil, 1,000 g active ingredient per hectare, 21st day after application
Protocol: (§1) [table] Test Example 2 Test on Herbicidal Effect by Soil Application to Upland field In a 80 cm2 plastic pot, field soil was filled. Seeds of barnyardgrass (Echinochloa crus-galli (L.) P. Beauv. var. crus-galli), green foxtail (Setaria viridis (L.) P. Beauv.), velvetleaf (Abutilon theophrasti medicus), and slender amaranth (Amaranthus viridis L.) were sown and covered with soils. The wettable powder prepared according to Formulation Example 1 was diluted in water and a 1,000 liter equivalent amount per 1 hectare so that the active ingredient becomes 1,000 g per 1 hectare was uniformly sprayed on a soil surface using a small sprayer. Then, on the 21st day after the application to the plants grew in a greenhouse, the herbicidal effect was examined in accordance with a standard shown in Table 34.

[2] = system: velvetleaf (Abutilon theophrasti medicus); test: as above; settings: soil surface spray, upland field soil, 1,000 g active ingredient per hectare, 21st day after application
Protocol: as §1

[3] = system: green foxtail (Setaria viridis (L.) P. Beauv.); test: as above; settings: soil surface spray, upland field soil, 1,000 g active ingredient per hectare, 21st day after application
Protocol: as §1

[4] = system: barnyardgrass (Echinochloa crus-galli (L.) P. Beauv. var. crus-galli); test: as above; settings: soil surface spray, upland field soil, 1,000 g active ingredient per hectare, 21st day after application
Protocol: as §1

[5] = system: Japanese bulrush (Scirpus juncoides Roxb.); test: Test Example 1: herbicidal effect by soil application to paddy field; settings: paddy field soil application; active ingredient 1,000 g per 1 hectare; wettable powder added dropwise to water surface the day after sowing; examined on the 21st day after application
How it was run: (§2)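 Under greenhouse conditions, seeds sown on puddled paddy soil in 100 cm2 pots under 3 cm of standing water received the test compound; injury was assessed with a standard scoring scheme three weeks (day 21) after treatment.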

[6] = system: heartshape false pickerelweed (Monochoria vaginalis (Burm.f.) C.Presl); test: as above; settings: paddy field soil application; active ingredient 1,000 g per 1 hectare; wettable powder added dropwise to water surface the day after sowing; examined on the 21st day after application
How it was run: as §2

[7] = system: early watergrass (Echinochloa oryzicola Vasing); test: as above; settings: paddy field soil application; active ingredient 1,000 g per 1 hectare; wettable powder added dropwise to water surface the day after sowing; examined on the 21st day after application
How it was run: as §2

[8] = system: slender amaranth (Amaranthus viridis L.); test: Test Example 3: herbicidal effect by application to upland field (foliage treatment); settings: foliage treatment, 1,000 g active ingredient per 1 hectare, 14th day after application, greenhouse
How it was run: (§3)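 Foliar spray on two-week-old greenhouse weeds in field soil: wettable powder formulation diluted in water, applied at 1,000 L/ha to give 1,000 g a.i./ha. Damage rated by a fixed scoring standard on day 14 after application.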

[9] = system: velvetleaf (Abutilon theophrasti medicus); test: as above; settings: foliage treatment, 1,000 g active ingredient per 1 hectare, 14th day after application, greenhouse
How it was run: as §3

[10] = system: green foxtail (Setaria viridis (L.) P. Beauv.); test: as above; settings: foliage treatment, 1,000 g active ingredient per 1 hectare, 14th day after application, greenhouse
How it was run: as §3

[11] = system: barnyardgrass (Echinochloa crus-galli (L.) P. Beauv. var. crus-galli); test: as above; settings: foliage treatment, 1,000 g active ingredient per 1 hectare, 14th day after application, greenhouse
How it was run: as §3

Compound	herbicidal effect (index), Slender Amaranth [1]	herbicidal effect (index), Velvetleaf [2]	herbicidal effect (index), Green Foxtail [3]	herbicidal effect (index), Barnyardgrass [4]	herbicidal effect, Scirpus juncoides Roxb. [5]	herbicidal effect, Monochoria vaginalis (Burm. f.) C. Presl [6]	herbicidal effect, Echinochloa oryzicola Vasing [7]	herbicidal effect, Slender Amaranth [8]	herbicidal effect, Velvetleaf [9]	herbicidal effect, Green Foxtail [10]	herbicidal effect, Barnyardgrass [11]
CC(C)(C)c1ccc(-n2c(C(F)(F)F)ccc(C(=O)C3=C(O)CCCC3=O)c2=O)cc1 [I-96]	3 (50 to less than 70% of herbicidal effect and crop phytotoxicity)	5 (90% or more of herbicidal effect and crop phytotoxicity)	5 (90% or more of herbicidal effect and crop phytotoxicity)	5 (90% or more of herbicidal effect and crop phytotoxicity)	5 (90% or more of herbicidal effect and crop phytotoxicity)	5 (90% or more of herbicidal effect and crop phytotoxicity)	5 (90% or more of herbicidal effect and crop phytotoxicity)				
O=C1CCCC(O)=C1C(=O)c1ccc(C(F)(F)F)n(Cc2cc(Cl)nc(Cl)c2)c1=O [I-124]	5 (90% or more of herbicidal effect and crop phytotoxicity)	5 (90% or more of herbicidal effect and crop phytotoxicity)	5 (90% or more of herbicidal effect and crop phytotoxicity)	5 (90% or more of herbicidal effect and crop phytotoxicity)	5 (90% or more of herbicidal effect and crop phytotoxicity)	5 (90% or more of herbicidal effect and crop phytotoxicity)	5 (90% or more of herbicidal effect and crop phytotoxicity)				
CCCCCNn1c(C(F)(F)F)ccc(C(=O)C2=C(O)CCCC2=O)c1=O [I-165]	5 (90% or more of herbicidal effect and crop phytotoxicity)	5 (90% or more of herbicidal effect and crop phytotoxicity)	3 (50 to less than 70% of herbicidal effect and crop phytotoxicity)	5 (90% or more of herbicidal effect and crop phytotoxicity)	5 (90% or more of herbicidal effect and crop phytotoxicity)	5 (90% or more of herbicidal effect and crop phytotoxicity)	5 (90% or more of herbicidal effect and crop phytotoxicity)				
O=C1CCCC(O)=C1C(=O)c1ccc(C(F)(F)F)n(NCCCCl)c1=O [I-167]	5 (90% or more of herbicidal effect and crop phytotoxicity)	5 (90% or more of herbicidal effect and crop phytotoxicity)	5 (90% or more of herbicidal effect and crop phytotoxicity)	5 (90% or more of herbicidal effect and crop phytotoxicity)	5 (90% or more of herbicidal effect and crop phytotoxicity)	5 (90% or more of herbicidal effect and crop phytotoxicity)	5 (90% or more of herbicidal effect and crop phytotoxicity)				
CN(c1ccccc1)n1c(C(F)(F)F)ccc(C(=O)C2=C(O)CCCC2=O)c1=O [I-182]	5 (90% or more of herbicidal effect and crop phytotoxicity)	5 (90% or more of herbicidal effect and crop phytotoxicity)	4 (70 to less than 90% of herbicidal effect and crop phytotoxicity)	5 (90% or more of herbicidal effect and crop phytotoxicity)	5 (90% or more of herbicidal effect and crop phytotoxicity)	5 (90% or more of herbicidal effect and crop phytotoxicity)	5 (90% or more of herbicidal effect and crop phytotoxicity)				
COn1c(C(F)(F)F)ccc(C(=O)C2=C(O)CCCC2=O)c1=O [I-202]	5 (90% or more of herbicidal effect and crop phytotoxicity)	5 (90% or more of herbicidal effect and crop phytotoxicity)	5 (90% or more of herbicidal effect and crop phytotoxicity)	5 (90% or more of herbicidal effect and crop phytotoxicity)	5 (90% or more of herbicidal effect and crop phytotoxicity)	5 (90% or more of herbicidal effect and crop phytotoxicity)	5 (90% or more of herbicidal effect and crop phytotoxicity)				
CCn1c(C(F)(F)Cl)ccc(C(=O)C2=C(O)CCCC2=O)c1=O [I-226]	5 (90% or more of herbicidal effect and crop phytotoxicity)	5 (90% or more of herbicidal effect and crop phytotoxicity)	3 (50 to less than 70% of herbicidal effect and crop phytotoxicity)	4 (70 to less than 90% of herbicidal effect and crop phytotoxicity)	5 (90% or more of herbicidal effect and crop phytotoxicity)	5 (90% or more of herbicidal effect and crop phytotoxicity)	5 (90% or more of herbicidal effect and crop phytotoxicity)				
Cc1ccc(C(=O)C2=C(O)CCCC2=O)c(=O)n1-c1ccc(Cl)cc1 [I-233]	5 (90% or more of herbicidal effect and crop phytotoxicity)	5 (90% or more of herbicidal effect and crop phytotoxicity)	3 (50 to less than 70% of herbicidal effect and crop phytotoxicity)	4 (70 to less than 90% of herbicidal effect and crop phytotoxicity)	5 (90% or more of herbicidal effect and crop phytotoxicity)	5 (90% or more of herbicidal effect and crop phytotoxicity)	5 (90% or more of herbicidal effect and crop phytotoxicity)				
CCCS(=O)(=O)Oc1c(C(=O)c2ccc(C(F)(F)F)n(CCC=C(Cl)Cl)c2=O)cnn1C [IV-31]	5 (90% or more of herbicidal effect and crop phytotoxicity)	4 (70 to less than 90% of herbicidal effect and crop phytotoxicity)	3 (50 to less than 70% of herbicidal effect and crop phytotoxicity)	4 (70 to less than 90% of herbicidal effect and crop phytotoxicity)							
CC(=O)Oc1c(C(=O)c2ccc(C(F)(F)F)n(C)c2=O)cnn1C(C)C [IV-220]					5 (90% or more of herbicidal effect and crop phytotoxicity)	5 (90% or more of herbicidal effect and crop phytotoxicity)	5 (90% or more of herbicidal effect and crop phytotoxicity)	5 (90% or more of herbicidal effect and crop phytotoxicity)	5 (90% or more of herbicidal effect and crop phytotoxicity)	3 (50 to less than 70% of herbicidal effect and crop phytotoxicity)	4 (70 to less than 90% of herbicidal effect and crop phytotoxicity)
Cc1nn(C)c(O)c1C(=O)c1ccc(C(F)(F)F)n(C)c1=O [IV-231]					5 (90% or more of herbicidal effect and crop phytotoxicity)	5 (90% or more of herbicidal effect and crop phytotoxicity)	5 (90% or more of herbicidal effect and crop phytotoxicity)	5 (90% or more of herbicidal effect and crop phytotoxicity)	5 (90% or more of herbicidal effect and crop phytotoxicity)	5 (90% or more of herbicidal effect and crop phytotoxicity)	3 (50 to less than 70% of herbicidal effect and crop phytotoxicity)
N#CC(C(=O)c1ccc(C(F)(F)F)n(CC(F)(F)F)c1=O)=C(O)C1CC1 [V-22]	5 (90% or more of herbicidal effect and crop phytotoxicity)	5 (90% or more of herbicidal effect and crop phytotoxicity)	4 (70 to less than 90% of herbicidal effect and crop phytotoxicity)	4 (70 to less than 90% of herbicidal effect and crop phytotoxicity)							
